# Tested on: Mycolicibacterium smegmatis
# Assay: Antitubercular activity against Mycobacterium smegmatis ATCC 607 incubated at 37 degC for 7 days by resazurin dye based fluorometry
# Format: functional
# Settings: ATCC 607, 168 h
row,SMILES,IC90 [µg/mL]
1,COc1nc2ccc(Br)cc2cc1C(c1ccoc1)C(O)(CCN(C)C)c1ccccc1 (racemic),0.06 to 1.57

# Tested on: Homo sapiens
# Assay: Terminal half life in healthy human subjects dosed as single 400 mg dose on Day 1 followed by PK sampling (Days 1 to 14)
# Format: ADME, organism-based
# Settings: in vivo
row,SMILES,beta t1/2 [months]
1,COc1nc2ccc(Br)cc2cc1[C@@H](c1ccccc1)[C@@](O)(CCN(C)C)c1cccc2ccccc12 [BEDAQUILINE],5 to 6

# Tested on: Mycobacterium tuberculosis
# Assay: Growth inhibition of Mycobacterium tuberculosis H37Rv under aerobic condition after 4 days by MABA method
# Format: functional
# Settings: 96 h
row,SMILES,MIC90 [µg/mL]
1,COc1ncccc1C(c1cc2cc(Br)ccc2nc1OC)C(O)(CCN(C)C)c1cccc2c1OCO2 (mixture of isomers),0.24

# Tested on: Vero
# Assay: Cytotoxicity against African green monkey Vero cells after 72 hrs by MTS-PMS assay
# Format: cell-based
# Settings: Chlorocebus sabaeus
row,SMILES,IC50 [µg/mL]
1,COc1nc2ccc(Br)cc2cc1[C@@H](c1cccnc1N(C)C)[C@@](O)(CCN(C)C)c1cccc(F)c1,> 10
2,COc1nc2ccc(Br)cc2cc1[C@@H](c1ccnc(OC)c1OC)[C@@](O)(CCN(C)C)c1cccc(OC(F)F)c1,> 10
3,CCSc1ccc([C@H](c2cc3cc(Br)ccc3nc2OC)[C@@](O)(CCN(C)C)c2cccc(F)c2)cn1,> 10
4,COc1nc2ccc(Br)cc2cc1[C@@H](c1ccnc(OC)c1OC)[C@@](O)(CCN(C)C)c1cccc(C)c1,> 10
5,COc1nc2ccc(Br)cc2cc1[C@@H](c1cc(C)c(C)s1)[C@@](O)(CCN(C)C)c1cccc(F)c1,> 10
6,COc1nc2ccc(Br)cc2cc1[C@@H](c1ccc(N(C)C)nc1)[C@@](O)(CCN(C)C)c1cccc(F)c1,> 10
7,COc1nc2ccc(Br)cc2cc1[C@@H](c1ccccc1)[C@@](O)(CCN(C)C)c1cccc2ccccc12 [BEDAQUILINE],> 10
8,COc1nc2ccc(Br)cc2cc1[C@@H](c1cncc(C)c1)[C@@](O)(CCN(C)C)c1cccc(F)c1,> 10
9,COc1cc([C@H](c2cc3cc(Br)ccc3nc2OC)[C@@](O)(CCN(C)C)c2cccc(F)c2)cnc1OC,> 10
10,COc1nc2ccc(Br)cc2cc1[C@@H](c1ccnc(OC)c1OC)[C@@](O)(CCN(C)C)c1cccc(C#N)c1,> 10
